One assay deals with EWS-FLI1 and RHA. Description: ELISA of binding between EWS-FLI1 and RHA. The protocol:
EWS-FLI1 was used to coat the surface of a 96 well plate (MaxiSorb) at a concentration of 150ng/well in 100μL buffer containing 20mM Tris, 500mM sodium chloride, and 1M imidazole. Following overnight incubation, the plate was blocked with 4% BSA in PBS and washed with PBS + 0.1% Tween-20. Small molecules were added at concentrations of 1μM, 3μM, 10μM, and 30μM, followed by RHA (300ng/well) and allowed to incubate overnight. Following washing, incubation with RHA antibody (Everest) and anti-goat secondary, protein binding was detected using a TMB Peroxidase EIA Substrate Kit (Bio-Rad) per the manufacturer's instructions.

The target of assay [1] is T1, EWS-FLI1/RHA interaction in TC32 cells (Homo sapiens, UniProt Q01543+Q01844).
T1 construct: FLI1 C-terminal portion (fusion partner, Q01543); endogenous in cells; host or cells: TC32
T1 sequence (Q01844+Q01543 with tags, fused parts or gaps): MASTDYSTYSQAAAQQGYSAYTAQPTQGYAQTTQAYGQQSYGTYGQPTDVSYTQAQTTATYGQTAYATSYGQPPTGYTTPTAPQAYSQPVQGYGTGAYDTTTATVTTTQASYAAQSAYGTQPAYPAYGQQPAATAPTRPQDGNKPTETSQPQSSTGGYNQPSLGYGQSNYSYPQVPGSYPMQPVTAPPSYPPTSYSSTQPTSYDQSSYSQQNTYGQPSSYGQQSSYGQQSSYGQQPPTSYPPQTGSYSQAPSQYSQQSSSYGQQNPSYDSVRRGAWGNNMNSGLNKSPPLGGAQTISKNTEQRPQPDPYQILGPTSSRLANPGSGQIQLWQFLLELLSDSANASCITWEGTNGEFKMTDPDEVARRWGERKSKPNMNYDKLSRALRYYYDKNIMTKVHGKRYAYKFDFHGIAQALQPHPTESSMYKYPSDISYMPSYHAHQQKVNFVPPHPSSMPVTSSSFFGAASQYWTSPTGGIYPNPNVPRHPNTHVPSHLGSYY
As to the kind of experiment: Co-immunoprecipitation of EWS-FLI1 and RHA from treated TC32 cells, western blot densitometry. In kind it is cell-based. Particulars: 15 hours; for RHA coimmunoprecipitated with EWS-FLI1: 10μM; for IC50: 0.3 to 10μM, read-out: IC50, densitometry of RHA relative to FLI1. As to the method: TC32 were grown to ~70% confluency and cells were treated for 15 hours with small molecule. Nuclear lysate was collected using the Active Motif Magnetic Co-IP Kit (Active Motif). Protein concentration was determined using bicinchoninic acid protein assay for each lysate (Pierce) and lysate was bound to 1μg of antibody overnight at 4C on a rotating axis with addition of same concentration of small molecule as used for 15 hour treatment. Magnetic beads (Active Motif) were added to the lysates and tumbled for 2 hours at 4C. Immunoprecipitated proteins were resolved using 10% PAGE and transferred to a polyvinylidene difluoride membrane (Millipore). Membranes were blocked in 5% nonfat dry milk in TTBS (20mM Tris-HCl, 150mM NaCl, 0.5% Tween 20) for 2 hours. FLI1 (Santa Cruz Biotechnologies) and RHA (Abcam) antibodies were used at 1:1000 dilutions in 5% nonfat dry milk for 2 hours. Horseradish peroxidase-linked anti-rabbit antibody (GE Healthcare) was added for 1 hour. Detection was carried out using Millipore Immobilon Western Chemiluminescent HRP Substrate per the manufacturer's instructions (Millipore Corp.). Chemiluminescence was detected using a Fujifilm LAS-3000 imaging system. Densitometry values were obtained using ImageJ software.

The subject of assay [2] is Cyclin D1b/D1a mRNA level in A673i cells. Description: Quantitative RT-PCR of Cyclin D1b/D1a mRNA in A673i cells. The class given is cell-based. Particulars: 1μM, 8 hours. The protocol:
A673i cells were treated with 1μM small molecule for 8 hours. Positive control cells were treated with tetracycline for 72 hours to knock down expression of EWS-FLI1. Total RNA was extracted using an RNeasy Micro Kit (Qiagen) and reverse transcribed using the Transcriptor First Strand cDNA Synthesis Kit (Roche) per the manufacturer's instructions. qPCR was performed using an Eppendorf Mastercycler Realplex with FastStart Universal SYBR Green Master with ROX (Roche) with primers for 18S, CyclinD1a, and CyclinD1b. Data were analyzed for expression relative to 18S using the comparative Ct method. Data from four separate experiments performed in duplicate were averaged.

The next assay concerns SKES cells. Description: Cellular proliferation (WST) assay, SKES. In kind it is cell-based. The following applies: 72 h, ESFT (Type 2), read-out: IC50 at 3 days (+/− SEM). The protocol:
(§1) TC32, TC71, RDES, MMH-ES-1, STA-ET 7.2, A4573, and PC3 cells were grown in RPMI with 10% FBS and 1% HEPES. SKES cells were grown in McCoy's 5A medium with 15% FBS. MCF7, MDA-MB-231, PANC1, and ASPC1 cells were grown in colorless DMEM with 10% FBS. Cells were grown at a plating density of 5,000 – 15,000 cells/well, depending on cell line, in a 96-well plate. Small molecule or vehicle alone (DMSO) were added to cells in appropriate growth media the day after plating. After three days, viable cells were quantified using WST (Roche) according to the manufacturer's protocol. IC50 values were calculated by sigmoidal dose-response curve fit using Prism Graphpad 4.0.

A further assay concerns MMH-ES-1 cells. As to the kind of experiment: Cellular proliferation (WST) assay, MMH-ES-1. The class given is cell-based. Particulars: 72 h; MMH-ES-1, ESFT (Type 2); read-out: IC50 at 3 days (+/− SEM). As to the method: as §1
The next assay deals with STA-ET 7.2 cells. As to the kind of experiment: Cellular proliferation (WST) assay, STA-ET 7.2. The class given is cell-based. Particulars: 72 h; STA-ET 7.2, ESFT (Type 2); read-out: IC50 at 3 days (+/− SEM). The protocol:
as §1

Another assay relates to A4573 cells. Description: Cellular proliferation (WST) assay, A4573. The class given is cell-based. The following applies: 72 h; A4573, ESFT (Type 3); read-out: IC50 at 3 days (+/− SEM). As to the method:
as §1

The test system of another assay is MCF7 cells. As to the kind of experiment: Cellular proliferation (WST) assay, MCF7. The following applies: Homo sapiens, 72 h; MCF7, breast; read-out: IC50 at 3 days (+/− SEM). The class given is cell-based. As to the method: as §1
In another assay the test system is MDA-MB-231 cells. Description: Cellular proliferation (WST) assay, MDA-MB-231. The class given is cell-based. Particulars: Homo sapiens, 72 h; MDA-MB-231, breast; read-out: IC50 at 3 days (+/− SEM). The protocol: as §1
The test system of the next assay is PANC1 cells. Description: Cellular proliferation (WST) assay, PANC1. In kind it is cell-based. The following applies: Homo sapiens, PANC-1, 72 h; PANC1, pancreatic; read-out: IC50 at 3 days (+/− SEM). The protocol: as §1
For the next assay, the system named is ASPC1 cells. As to the kind of experiment: Cellular proliferation (WST) assay, ASPC1. The class given is cell-based. The following applies: Homo sapiens, 72 h; ASPC1, pancreatic; read-out: IC50 at 3 days (+/− SEM). The protocol: as §1
Another assay concerns ESFT cell lines. As to the kind of experiment: Cellular proliferation (WST) assay, panel of seven ESFT cell lines. In kind it is cell-based. The following applies: 72 h. The protocol:
as §1

Assay [3] concerns non-ESFT cell lines (PC3, MCF7, MDA-MB-231, PANC1, ASPC1). As to the kind of experiment: Cellular proliferation (WST) assay, panel of five non-ESFT cell lines. The following applies: 72 h. In kind it is cell-based. The protocol: as §1
[4] abbreviates: mean over seven ESFT cell lines, read-out: Mean IC50 at 3 days (+/− SEM).
The mark [5] stands for this setting: seven EWS-FLI1 expressing cell lines, three days, read-out: range of mean IC50 values across ESFT cell lines.
Where [6] appears, read: read-out: Mean IC50 at 3 days (+/− SEM), mean over five non-ESFT cell lines.
The mark [7] stands for this setting: as little as 1μM small molecule.

Like-named read-outs stand apart in the source and are kept apart here. Some results are limits rather than exact numbers.

Consider `COc1ccc(C(=O)C[C@]2(O)C(=O)Nc3c(Cl)ccc(Cl)c32)cc1` [(R)-YK-4-279], for which, in the assay on EWS-FLI1 and RHA (30μM), the “inhibition of EWS-FLI1/RHA binding” value is “does not inhibit the binding”. Besides, the “RHA coimmunoprecipitated with EWS-FLI1” value in [1] is reported as “coimmunoprecipitation of EWS-FLI1 with RHA”. Also, in assay [2], the “D1b/D1a mRNA ratio” value is “maintained a D1b/D1a ratio equivalent to the vehicle treated cells”. The IC50 in the assay on SKES cells was 21 µM; in the assay with MMH-ES-1 cells, 26 µM; in the assay on STA-ET 7.2 cells, 21.2 µM; with A4573 cells, 11.7 µM; in the assay on MCF7 cells, above 30 µM; with MDA-MB-231 cells it was 22 µM. Moreover, the IC50 with PANC1 cells was 24.9 µM; in the assay with ASPC1 cells, above 30 µM; in the assay on ESFT cell lines (setting [4]), 18.5 µM; in the assay on ESFT cell lines (setting [5]), 11.7 to 26 µM; in [3] (setting [6]) it was above 30 µM.
Take `COc1ccc(C(=O)C[C@@]2(O)C(=O)Nc3c(Cl)ccc(Cl)c32)cc1` [(S)-YK-4-279]: the “inhibition of EWS-FLI1/RHA binding” value in the assay with EWS-FLI1 and RHA (setting [7]) is “able to inhibit the protein-protein interaction”. The “RHA coimmunoprecipitated with EWS-FLI1” value in [1] is “significant reduction in complexed RHA”. The IC50 in assay [1] was 1.8 µM; with SKES cells, 0.18 µM; with MMH-ES-1 cells, 0.34 µM; with STA-ET 7.2 cells, 0.31 µM; with A4573 cells, 0.23 µM; with MCF7 cells it was 19.5 µM. The IC50 in the assay on MDA-MB-231 cells was 1.17 µM; with PANC1 cells it was 1.69 µM; in the assay with ASPC1 cells, 8.16 µM; in the assay on ESFT cell lines (setting [4]), 0.34 µM; with ESFT cell lines (setting [5]), 0.16 to 0.87 µM; in assay [3] (setting [6]) it was 6.86 µM. Also, the “D1b/D1a mRNA ratio” value in [2] is listed as “reduced this ratio to a level equivalent to the EWS-FLI1 reduction”. Moreover, in [2], the “more potent at the D1b/D1a reduction than racemic” value was “approximately 35%”.
As for `COc1ccc(C(=O)CC2(O)C(=O)Nc3c(Cl)ccc(Cl)c32)cc1` (stereo not drawn) [YK-4-279], the “inhibition of EWS-FLI1/RHA binding” value in the assay on EWS-FLI1 and RHA (setting [7]) is given as “able to inhibit the protein-protein interaction”. Moreover, in [1], the “RHA coimmunoprecipitated with EWS-FLI1” value is recorded as “significant reduction in complexed RHA”. Also, the IC50 in [1] amounted to 4.9 µM; in the assay on SKES cells it was 0.33 µM; in the assay with MMH-ES-1 cells, 0.94 µM; with STA-ET 7.2 cells, 0.6 µM; in the assay with A4573 cells it was 1.46 µM; in the assay with MCF7 cells it was 22.8 µM. Further, the IC50 is 0.82 µM in the assay on MDA-MB-231 cells; 1.51 µM in the assay with PANC1 cells; 14.3 µM in the assay with ASPC1 cells; 1.02 µM with ESFT cell lines (setting [4]); 0.33 to 1.83 µM with ESFT cell lines (setting [5]); 8.88 µM in [3] (read-out: Mean IC50 at 3 days (+/− SEM)). In assay [2], the “D1b/D1a mRNA ratio” value was “reduction in the D1b/D1a levels”.

Values taken from article PMC3326647, “Single Enantiomer of YK-4-279 Demonstrates Specificity in Targeting the Oncogene EWS-FLI1” (Oncotarget, 2012).
